Legend:
[1] = Pigments dispersion: wet point and flow point; type: physicochemical; details: for Fp (flow point), amount of ester oil / Wp (wet point), amount of ester oil: grams per 100 g of pigment
From the text: Black Iron Oxide particles (C177499, commercially available as YPC335200 from Yipin) were dispersed in each of the ester oils of the present invention and in ester oil commonly used as cosmetic ingredients. Each sample of powder particles was wetted by the dropwise addition of one ester oil and then vigorously blended using a spatula until the wet point and the flow point were reached.
The wet point is defined as the minimum volume of dispersant solution to produce a soft coherent mass; the further minimum addition of dispersant solution to produce flow or falling off of the homogeneous mass from the vertical blade of a horizontally held spatula determines the flow point.
The amounts of dispersant solution (i.e. ester oil) needed to reach the wet point (Wp) and the flow point (Fp) were recorded and reported in the table below, expressed in grams per 100 g of pigment.

[2] = UV filters dispersion (dispersibility of solid UV filter in ester oils); type: physicochemical; set-up: key to Filters dispersion t0, 1% / Filters dispersion t0, 10% / Filters dispersion t24, 1% / Filters dispersion t24, 10%: D=homogeneous dispersion; S=sediment deposit; details: for Filters dispersion t0, 1%: 1% TiO2, 0 hours at 25° C.; for Filters dispersion t24, 1%: 1% TiO2, 24 hours at 25° C.; for Filters dispersion t0, 10%: 10% TiO2, 0 hours at 25° C.; for Filters dispersion t24, 10%: 10% TiO2, 24 hours at 25° C.; for dispersion of Titania compared with reference solvents: in words
Protocol: The dispersibility of a solid UV filter in different ester oils was tested using Titania (TiO2, commercially available as Titanio Biossido Anatasio from A.C.E.F.). Various ratios of filter/ester (1% and 10% TiO2) were prepared under stirring at 70° C. for 30 minutes. The dispersions were then observed after a storage period of 0 hours (t0) and 24 hours (t24) at ambient temperature (25° C.) to check for the formation of any sediment deposit. Results for each ester are shown in the table below (D=homogeneous dispersion; S=sediment deposit).

| less solvent required in the final composition [1] | Fp (flow point), amount of ester oil [1] | Wp (wet point), amount of ester oil [1] | dispersion properties compared with commonly used cosmetic ingredients ([1]; in words) | Filters dispersion t0, 1% [2] | Filters dispersion t24, 1% [2] | Filters dispersion t0, 10% [2] | Filters dispersion t24, 10% [2] | dispersion of Titania compared with reference solvents [2] | Structure (SMILES) |
| --- | --- | --- | --- | --- | --- | --- | --- | --- | --- |
| about 30% | 100.00 g | 60.00 g | even better | D | D | D | S/D | even better | CCCCCCCCC(=O)OCC(COC(=O)CCCCCCCC)OC(=O)CCCCCCCC [Glycerol tripelargonate] |
| – | 145.00 g | 50.00 g | – | D | S | D | S | – | CC(C)CCCCCCOC(=O)CCCCCC(C)C [Isononyl Isononanoate, reference compound] |
| – | 166.00 g | 61.00 g | – | D | S/D | D | S/D | – | CCCCCCCCC(=O)OCC(C)(C)COC(=O)CCCCCCCC [Neopentyl glycol dipelargonate] |
| – | 132.00 g | 62.00 g | – | D | D | D | D | even better | CCCCCCCCC(=O)OCC(COC(=O)CCCCCCCC)(COC(=O)CCCCCCCC)COC(=O)CCCCCCCC [Pentaerythritol tetrapelargonate] |

Reference: patent US11992545B2, “Aqueous cosmetic compositions containing pelargonic acid esters” (Novamont S.p.A., priority 2015, dated 2024)
